Experimental data: patent US8853245B2, “Orally bioavailable dabigatran prodrugs for the treatment of diseases” (Dritte Patentportfolio Beteiligungsgesellschaft mbH & Co. KG, priority 2011, dated 2014)
≈ marks a conversion by molar mass, not a printed value. Entries after “also recorded” stand apart in the source; their conditions may differ. Like-named read-outs stand apart in the source and are kept apart here.

How the values were obtained:
[1] = Solubility in phosphate buffer at various pH values; type: physicochemical; conditions: shaken 10 min; for solubility at 10 min: aqueous buffer, thermodynamic from solid
Method: An amount of the dabigatran amidoxime succinic acid ester (1) which is insoluble in 150 μl was dissolved in 50 mM of a phosphate buffer (pH 6.3, pH 7.4, respectively pH 9.0) and shaken for 10 min. Solubility was not determined at the 4.0 and 2.0 pH values due to the rapid hydrolysis of the succinyl ester at acidic pH values. 3 N HCl, respectively 10% KOH, was used to adjust the pH value. After the 10 min period, the undissolved portion was removed by centrifugation (13,000 RPM, 10 min) and the samples were immediately measured by HPLC. The evaluation of the solubility ensued via a calibration of dabigatran amidoxime succinic acid ester (1) (Table 1). Dabigatran etexilate and dabigatran amidoxime (2) were examined by comparison so as to be able to better judge the solubility as compared to previously described derivatives. Solubilities were determined analogously to the method described for compound (1).

[2] = Stability (ester hydrolysis) in murine plasma; type: in vitro ADME; conditions: 0.2 mM, 37° C., up to 150 min, listed as dabigatran amidoxime succinic acid ester (1)
Method: (§1) Further analyses were conducted with human and murine plasma. 900 μl of the plasma was mixed with 100 μl of a 2 mM solution of dabigatran amidoxime succinic acid ester (1). The final concentration of dabigatran amidoxime succinic acid ester (1) was thus 0.2 mM. The samples were incubated at 37° C. in a shaking water bath and samples were taken after 0, 15, 30, 45, 60, 90, 120 and 150 min. For this purpose, 100 μl was drawn in each case and mixed with 100 μl acetonitrile. The samples were shaken, centrifuged for 5 min and the supernatant was measured via HPLC. The results are illustrated in FIGS. 2 and 3.

[3] = Stability analysis at various pH values (phosphate buffer, HPLC); type: physicochemical; conditions: acidic medium (<pH 6)
Method: A 0.2 mM solution of dabigatran amidoxime succinic acid ester (1) was prepared in 50 mM of a potassium phosphate buffer for the stability analyses. The examination took place at pH values of 2.0, 4.0, 6.3, 7.4 and 9.0. One sample was taken and immediately analyzed by HPLC every 30 min over a period of 360 min.

[4] = Stability (ester hydrolysis) in human plasma; type: in vitro ADME; conditions: 0.2 mM, 37° C., up to 150 min, listed as dabigatran amidoxime succinic acid ester (1)
Method: as §1

[5] = Solubility in phosphate buffer at various pH values; type: physicochemical; conditions: pH 2.0, preliminary test runs
albumin = albumin (Homo sapiens, UniProt P02768); assay: Plasma protein binding (4% albumin solution, ultrafiltration); type: in vitro ADME; conditions: 10, 25 and 50 μM, 15 min at 37° C.
albumin, sequence (P02768 25-609, species assumed): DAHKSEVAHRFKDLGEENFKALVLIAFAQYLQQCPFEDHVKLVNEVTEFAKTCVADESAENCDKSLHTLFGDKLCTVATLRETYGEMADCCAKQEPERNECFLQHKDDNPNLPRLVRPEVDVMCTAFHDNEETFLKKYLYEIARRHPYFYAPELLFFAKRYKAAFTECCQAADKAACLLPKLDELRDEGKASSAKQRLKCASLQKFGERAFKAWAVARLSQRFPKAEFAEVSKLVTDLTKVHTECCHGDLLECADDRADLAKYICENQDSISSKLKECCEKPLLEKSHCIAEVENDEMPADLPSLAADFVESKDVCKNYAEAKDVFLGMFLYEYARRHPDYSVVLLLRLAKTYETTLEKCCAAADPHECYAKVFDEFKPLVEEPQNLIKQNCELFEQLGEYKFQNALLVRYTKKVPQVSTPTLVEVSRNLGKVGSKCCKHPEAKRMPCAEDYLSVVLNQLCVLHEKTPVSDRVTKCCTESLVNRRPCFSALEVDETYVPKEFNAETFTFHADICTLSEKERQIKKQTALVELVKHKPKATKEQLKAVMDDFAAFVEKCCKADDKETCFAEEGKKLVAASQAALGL
Method: The plasma protein binding was determined at three different concentrations (10, 25, and 50 μM). A 4% albumin solution was used as the protein solutions. 50 μl of a 10 times concentrated substance solution were in each case pipetted to 450 μl of the protein solution. Incubation ensued over 15 min in a shaking water bath at 37° C. Subsequently, the samples were transferred into ultrafiltration units (Vivaspin 500, 10 kDa cut off) and centrifuged for 15 min at 10,000 RPM. The filtrate was analyzed by HPLC. Additionally, a control which was not mixed with protein nor centrifuged was carried out for each concentration. A further control without protein addition which, however, was centrifuged by the filtration unit served to validate the methodology.

[6] = Dabigatran in organ samples (liver and kidney) after oral administration; type: in vivo; conditions: rats, oral 50 mg/kg, 8 hours after administration
Method: Slaughter ensued by guillotine decapitation 8 hours after the drug administration. The organs were subsequently removed. All organs were cleaned and frozen in 2-methylbutane cooled in dry ice. Liver, kidney, lung, spleen, heart, and brain were removed.
The organs were defrosted at room temperature and weighed. Depending on the respective organ, differing amounts of the tissues were prepared. About 1000 mg were used in case of the liver samples; about 500 mg in case of the kidney samples. Liver and kidney were examined since both organs participate in the activation of the prodrug and increased concentrations of dabigatran can therefore occur in same. Other organs are irrelevant for the bioactivation and were therefore not examined.
The organ samples (liver and kidney) were minced by means of a potter. For this purpose, each of the weighed tissues were minced with 1 ml aqua bidest for 5 min. The potter vessel was subsequently rinsed in each case with 1 ml of aqua bidest. The samples were transferred into reaction vessels and the same volume of acetonitrile was added in order to precipitate proteins. The samples were shaken for 45 min and subsequently centrifuged at 12,000 RPM for 15 min. […]
The solubilizing of the samples ensued with 400 μl of a mixture of methanol/aqua bidest (50/50). […] The concentration of dabigatran was determined from the supernatant by means of HPLC.

[7] = set-up: species or system rats; conditions: rat, in vivo
Method: Dabigatran was administered intravenously to 20 rats in a concentration of 10 mg/kg. Dabigatran amidoxime succinic acid ester (1), dabigatran amidoxime (2), and dabigatran etexilate were administered to 10 rats each in a concentration of 50 mg/kg as a suspension with Arabic gum (10% m/V) per gavage. 100 mM of potassium phosphate buffer of pH 9.0 was used with the dabigatran amidoxime succinic acid ester (1) in preparing the suspension so as to prevent premature cleavage of the succinyl ester in the acidic environment of the stomach. In addition, 3 rats were given dabigatran at a dosage of 50 mg/kg per gavage in order to determine the oral bioavailability of the active form itself.
After the intravenous administration, plasma samples were taken after 5, 10, 25, 50, 100, 200, and 400 min, respectively 30, 60, 90, 120, 240, 360, and 480 min after oral administration. For this purpose, 300 μl of whole blood was drawn using an insulin syringe and transferred into EDTA-coated CB 300 microvettes (Sarstedt, Nümbrecht). After each withdrawal, the sample was rinsed with 100 μl of 0.9% saline solution respectively with heparin solution (250 I.E./ml) at an interval of 60 min. The blood sample was briefly shaken and placed on ice until centrifugation (4° C.; 14,000 RPM; 10 min). The samples were stored further at −80° C.
The plasma samples were defrosted at room temperature. 5 μl of 1N HCl was prepared in each case and 55 μl of the plasma samples added by pipetting. The samples were subsequently shaken for 45 min in order to cleave the existing glucuronides. The plasma proteins were then precipitated with 55 μl of methanol and shaken for a further 30 min. The samples were centrifuged at 10,000 RPM for 15 min and the supernatant was transferred into HPLC vials. 10 μl was used in each case for the HPCL determinations.
Calibrations and analyses for recovering the dabigatran were performed in a phosphate buffer of pH 7.4, murine plasma respectively, so as to quantitatively evaluate the plasma samples.
The bioavailability of the different dabigatran prodrugs was calculated by means of the PK Solutions 2.0™ program using the plasma concentrations. Furthermore, the plasma half-life t1/2, the time of maximum plasma level tmax, as well as the maximum plasma concentration cmax were calculated.

[8] = etexilate data from the literature; cited from earlier work

| solubility at 10 min ([1]; pH 6.3, 50 mM phosphate buffer) | solubility at 10 min ([1]; pH 7.4, 50 mM phosphate buffer) | solubility at 10 min ([1]; pH 9.0, 50 mM phosphate buffer) | bioavailability [7] | Cmax ([7]; po, 50 mg/kg) | maximum plasma concentrations (range) ([7]; po, 50 mg/kg) | period of detectable dabigatran plasma levels ([7]; po, 50 mg/kg) | prodrug itself in plasma ([7]; po, 50 mg/kg) | t1/2 ([7]; po, 50 mg/kg) | time at which maximum plasma concentrations were reached (range) ([7]; po, 50 mg/kg) | tmax ([7]; po, 50 mg/kg) | SMILES | other results |
| --- | --- | --- | --- | --- | --- | --- | --- | --- | --- | --- | --- | --- |
| 630 ± 290 µM (≈ 388 µg/mL) | 4620 ± 830 µM (≈ 2840 µg/mL) | 8160 ± 440 µM (≈ 5020 µg/mL) | 5.5%±1.7% | 2770 ± 550 nM | 1.8 to 3.7 µM | 480 min | could not be identified | 69.3 ± 30.4^+ min | 30 to 60 min | 48.0 ± 15.5^+ min | CCOC(=O)CCN(C(=O)c1ccc2c(c1)nc(CNc1ccc(/C(N)=N/OC(=O)CCC(=O)O)cc1)n2C)c1ccccn1 | hydrolysis of the ester bond in plasma [2]: pronounced hydrolysis of the ester bond; also recorded: very marked ester cleavage; stability in acidic medium [3]: rather instable; hydrolysis of the ester bond in plasma [4]: pronounced hydrolysis of the ester bond; also recorded: very marked ester cleavage; solubility in acidic medium [5]: good solubility; fraction unbound at 15 min (albumin): ~0.78; plasma protein binding (albumin; listed as dabigatran amidoxime succinic acid ester (1)): 21.8±5.3%; dabigatran concentration in liver samples compared to other prodrugs [6]: clearly lower; dabigatran detected in liver and kidney [6]: small amounts |
|  |  |  | 4.1 ± 1.4 % | 2760 ± 1060 nM | 1.7 to 5.5 µM | 480 min | could not be identified | 108.1 ± 56.2^+ min | 30 to 60 min | 36.0 ± 12.6 min | Cn1c(CNc2ccc(C(N)=NO)cc2)nc2cc(C(=O)N(CCC(=O)O)c3ccccn3)ccc21 [Dabigatran amidoxime (2)] | solubility ([1]; pH 6.3, 50 mM phosphate buffer): 145 ± 16 µM (≈ 70.7 µg/mL); solubility ([1]; pH 7.4, 50 mM phosphate buffer): 119 ± 5 µM (≈ 58 µg/mL); solubility ([1]; pH 9.0, 50 mM phosphate buffer): 111 ± 8 µM (≈ 54.1 µg/mL); plasma protein binding (albumin): 31.2±1.3% |
| 3.6 ± 2 µM (≈ 2.26 µg/mL) | 0.6 ± 0.4 µM (≈ 0.377 µg/mL) | 0.4 ± 0.1 µM (≈ 0.251 µg/mL) | 7.2%±2.0% | 3480 ± 640 nM | 2.3 to 4.5 µM | 480 min | could not be identified | 87.7 ± 27.5 min | 30 to 90 min | 57.0 ± 22.1 min | CCCCCCOC(=O)NC(=N)c1ccc(NCc2nc3cc(C(=O)N(CCC(=O)OCC)c4ccccn4)ccc3n2C)cc1 [Dabigatran etexilate] | bioavailability described in the literature [8]: 5-8% |
|  |  |  |  | 240 ± 130 nM |  |  |  | 58.0 ± 31.1^+ min |  | 105.0 ± 21.2 min | [H]/N=C(/N)c1ccc(NCc2nc3cc(C(=O)N(CCC(=O)O)c4ccccn4)ccc3n2C)cc1 [Dabigatran] | period of detectable plasma levels ([7]; iv, 10 mg/kg): 400 min; bioavailability ([7]; po, 50 mg/kg): 0.3 ± 0.2 % |
